Reference: the NIST ThermoML archive (doi:10.1016/j.jct.2015.09.028)

How the values were obtained:
[1] = molar heat capacity at constant pressure; xn = mol fraction of the nth substance listed; conditions: Liquid, Flow calorimetry
[2] = xn = mol fraction of the nth substance listed; conditions: 93 kPa, Liquid; for viscosity: Concentric cylinders viscometry; for mass density: Vibrating tube method

c1ccc(Oc2ccccc2)cc1 [diphenyl ether] + c1ccc(-c2ccccc2)cc1
molar heat capacity at constant pressure [J/K/mol], [1]
Conditions	100 kPa	5000 kPa	10000 kPa	15000 kPa	20000 kPa	25000 kPa
293.15 K, x1 = 0.705	260.48	258.49	256.34	255.18	253.86	252.7
313.15 K, x1 = 0.55	273.53	272.22	270.76	269.94	269.29	268.96
313.15 K, x1 = 0.705	270.74	269.58	267.76	267.1	265.94	265.11
313.15 K, x1 = 0.85	272.02	270.67	270.17	269.67	269.5	269.33
313.15 K, x1 = 1	274.37	273.52	273.18	272.5	272.16	–
333.15 K, x1 = 0.55	285.75	284.45	284.29	283.96	283.8	–
333.15 K, x1 = 0.705	279.34	278.02	276.86	275.54	274.21	273.39
333.15 K, x1 = 0.85	285.1	284.6	284.27	284.1	283.76	283.43
333.15 K, x1 = 1	286.97	285.95	284.93	284.59	283.39	282.71
353.15 K, x1 = 0.55	295.7	294.88	294.55	294.39	293.25	293.09
353.15 K, x1 = 0.705	290.93	289.27	287.62	286.96	285.47	283.98
353.15 K, x1 = 0.85	299.2	297.86	297.69	297.35	297.19	296.68
353.15 K, x1 = 1	299.05	298.03	296.84	296.33	295.48	294.63

[2]
Conditions	mass density, x1 = 0.55 [kg/m3]	mass density, x1 = 0.705 [kg/m3]	mass density, x1 = 0.85 [kg/m3]	mass density, x1 = 1 [kg/m3]	viscosity, x1 = 0.55 [mPa·s]	viscosity, x1 = 0.705 [mPa·s]	viscosity, x1 = 0.85 [mPa·s]	viscosity, x1 = 1 [mPa·s]
288.15 K	–	1066.7	–	–	–	5.12	–	–
293.15 K	–	1062.4	–	–	–	4.39	–	–
298.15 K	–	1058.2	1064.2	–	–	3.81	3.8	–
303.15 K	–	1053.9	1060	1065.5	–	3.34	3.34	3.33
308.15 K	1043.7	1049.7	1055.7	1061.2	2.99	2.96	2.96	2.96
313.15 K	1039.5	1045.4	1051.3	1056.9	2.7	2.64	2.65	2.65
323.15 K	1031.1	1037	1042.7	1048.2	2.15	2.15	2.16	2.17
333.15 K	1022.6	1028.5	1034.1	1039.6	1.79	1.79	1.81	1.82
343.15 K	1014.1	1020	1025.5	1030.9	1.52	1.52	1.54	1.54
353.15 K	1005.6	1011.5	1016.9	1022.3	1.31	1.31	1.32	1.33
363.15 K	997.5	1003	1008.3	1013.7	1.14	1.14	1.15	1.16
373.15 K	989.2	994.9	999.8	1005.2	1	1.01	1.01	1.03
